The test system of one series is O=C(O)COc1ccc(Cl)cc1Cl. As to the kind of experiment: cells, lysate or membranes named. Conditions: other: 20° C., pH 8.0, 50 μM Fe^2, cell-free extract.
Another series deals with O=C(O)CCC(=O)C(=O)O. Nature of the series: cells, lysate or membranes named. The conditions noted are these: other: 20° C., pH 8.0, 50 μM Fe^2, cell-free extract.
Series [1] concerns the target T1, 2,4-D α-ketoglutarate dioxygenase (Cupriavidus pinatubonensis, UniProt P10088). Nature of the series: Enzyme activity and kinetics of recombinant DDO in cell-free extract (DCP production, 4-aminoantipyrine method).
Source text: (§1) Effect of pH on enzyme activity. Since the color reaction by the 4-aminoantipyrine method is almost instantaneous, the conversion rate of 2,4-D into DCP determines the response time for 2,4-D detection. Higher reaction rates result in smaller response times or less enzyme needed for 2,4-D detection. […] However, the preferred pH for the color reaction is in the range of pH 8.0 to 12.0. […] More importantly, 4-aminoantipyrine reacts with potassium ferricyanide at pH 6.5, producing a slight color change that is similar to having 2 mg/l DCP in solutions. Although pH 6.5 can be used for the enzymatic reaction if the pH of the solution is subsequently adjusted for the color reaction, this is less convenient.
(§2) Effect of Fe^2+ on enzyme activity. […] This saturation concentration should be a function of enzyme concentration used. In order to maximize enzyme activity, a higher ferrous ion concentration, such as 100 μM, should be used for 2,4-D detection.
(§3) Kinetics of enzymatic reaction. […] Since oxygen cannot be controlled in the process of 2,4-D detection, oxygen was not considered in the model. Kinetic data were measured at pH 8.0, 100 mM Fe^2+ and room temperature (20° C.), as shown in the Lineweaver-Burk plots in FIGS. 18A and 18B.
(§4) The values of model parameters were determined from double reciprocal plots.
In series [2] the target is T1, 2,4-D α-ketoglutarate dioxygenase. Also on record: made in house; host or cells: E. coli DH5α (pYG3), cell-free extract. Conditions: cited from earlier work.
A further series concerns E. coli DH5α (pYG3). As to the kind of experiment: Induction of enzyme production by IPTG in E. coli DH5α (pYG3). The series is classed as cell-based. As to the method: Growth and maintenance of E. coli DH5α (pYG3). E. coli DH5α (pYG3), a strain specifically constructed for 2,4-D detection (Example 1), was routinely maintained on LB plates with 75 mg/l of ampicillin and stored at 4° C. Yeast extract was used as a carbon and energy source for E. coli DH5α (pYG3) with 50 mg/l of ampicillin for selective pressure. Batch cultures of E. coli DH5α (pYG3) were carried out in 1000 ml flasks with 400 ml media for the optimization of media and operating condition. The media were directly inoculated by a single colony on a LB plate. The flasks were shaken on a rotary shaker at 200 rpm and incubated at 30° C. or 37° C.
DCP concentration was measured by the 4-aminoantipyrine method (E. Emerson, J. Org. Chem. 1943, 8, 417-419). In place of 2,4-D, phenoxyacetic acid was used for P. aeruginosa PAO1 (pRO103).
Preparation of cell-free extracts. E. coli cultures (10 or 15 ml) were harvested by centrifugation (8,000×g) for 10 minutes, washed using 5 ml of 100 mM sodium phosphate buffer (pH 8.0), then resuspended in 3 ml of phosphate buffer. Cell-free extracts were obtained by passing the cells once through a pre-chilled French press at 1500 psi and clarifying the debris by centrifugation (16,000×g) for 20 minutes at 4° C.
IPTG concentration. IPTG was used as the inducer of the lacZ promoter which regulated the expression of tfdA in pYG3 (Example 1). […]

T1 sequence (P10088 whole entry): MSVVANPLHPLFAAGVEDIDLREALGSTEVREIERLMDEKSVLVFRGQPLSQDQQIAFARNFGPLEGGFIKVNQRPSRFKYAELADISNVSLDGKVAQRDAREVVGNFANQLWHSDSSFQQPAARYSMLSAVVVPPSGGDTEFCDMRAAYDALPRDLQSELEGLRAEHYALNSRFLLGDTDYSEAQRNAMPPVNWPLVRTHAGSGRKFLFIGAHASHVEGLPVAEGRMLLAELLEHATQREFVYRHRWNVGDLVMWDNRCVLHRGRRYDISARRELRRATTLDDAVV
Source text for O=C(O)COc1ccc(Cl)cc1Cl: as §1, §2, §3, §4

On to “2,4-D α-ketoglutarate dioxygenase (Cupriavidus pinatubonensis JMP134)”, for which the values for the Km in the series on O=C(O)COc1ccc(Cl)cc1Cl and in the series with O=C(O)CCC(=O)C(=O)O were 107 µM and 55 µM, respectively.

For 2,4-D α-ketoglutarate dioxygenase [DDO], the maximal velocity (Vmax) in series [1] (20° C., pH 8.0, 50 μM Fe^2, cell-free extract of E. coli DH5α (pYG3)) worked out at 2.0 µmol/min/mg. The “optimum pH for the enzymatic reaction” value in series [1] (conversion of 2,4-D into DCP) came to 6.5. Regarding `O=C(O)COc1cc(Cl)c(Cl)cc1Cl` [2,4,5-T, (2,4,5,-trichlorophenoxy)acetic acid], the “cleavage by DDO” value in series [2] was “does not cleave”. Consider `Cc1ccccc1OCC(=O)O` [2-methylphenoxyacetic acid], for which, in series [2], the “cleavage by DDO” value is on record as “cleaves”. For `CC(C)S[C@@H]1O[C@H](CO)[C@H](O)[C@H](O)[C@H]1O` [IPTG, isopropyl β-D-thiogalactopyranoside], the “saturation IPTG concentration for enzyme production” value with E. coli DH5α (pYG3) (E. coli DH5α (pYG3)) is recorded as “approximately 150 mg/l”. For the same compound, the activation at 150 µg/mL in the series with E. coli DH5α (pYG3) (Escherichia coli, at saturation IPTG concentration, approximately 150 mg/l, read-out: enzyme productivity higher than without IPTG) is approximately 40%. In the case of `Cc1cc(Cl)ccc1OCC(=O)O` [MCPA, 4-chloro-2-methyl-phenoxyacetic acid], in series [2], the “cleavage by DDO” value is “cleaves the side chain”. Turning to `[Fe+2]` [ferrous ions], the “saturation concentration of ferrous ion for enzyme activity” value in series [1] (cell-free extract) turned out to be 50 µM. Regarding `O=C(O)COc1ccccc1` [phenoxyacetic acid], the “cleavage by DDO” value in series [2] was “cleaves the side chain”.

Source of the values: patent US5656422A, “Compositions and methods for detection of 2,4-dichlorophenoxyacetic acid and related compounds” (Idaho Research Foundation, Inc., priority 1994, dated 1997).
